Read-outs that look alike come from different tables or passages of the source.
Key:
[1] = tested on: e-CSC and non-CSC B16F0 tumors; assay: In vivo melanoma tumor fluorescence imaging; parameters: species or system mice; settings: 1 and 2 weeks
[2] = Photophysical properties (absorbance, emission, extinction coefficient, quantum yield); type: physicochemical; settings: for Quantum Yield: Probes 1-8
[3] = tested on: e-CSC and non-CSC melanoma lung metastases; assay: Ex vivo lung metastases imaging; type: in vivo, mice; settings: lungs perfused ex vivo, day 7 and 11
Method: Six to eight-week-old female C57BL/6J mice were purchased from Jackson Laboratory. Experimental metastases were established by injecting 2×10^5 melanoma cells via lateral tail vein injection. Mice were euthanized at either 7- or 11-days post injection. Immediately after euthanization, their lungs were excised and perfused with about 1 mL of either 15 μM AlDeSense AM or 15 μM Ctrl-AlDeSense AM in PBS. Outer portions of the lungs were rinsed in 15 mL of PBS to remove blood or excess dyes. After 2 hours incubation at room temperature (25° C.), the lungs were imaged on the IVIS spectrum imaging system (Perkin Elmer). Data was processed using Living Image software (Version 4.1).

Log D7.4 = type: physicochemical; settings: pH 7.4
[4] = pKa determination (pH profile of fluorescence); settings: Britton-Robinson buffer
Method: The fluorescence of 1 μM of each compound was measured in 40 mM Britton-Robinson buffer at pH 2-9 in 0.5 pH intervals. Each measurement was performed in triplicate. […] Error bars are ±standard deviation (SD).

ALDH1A1 [5] = molecular target: T1, ALDH1A1 (Homo sapiens, UniProt P00352); assay: Fluorescence turn-on of AlDeSense with recombinant ALDH1A1; type: biochemical; settings: fluorescent enhancement when treated with ALDH1A1; 1 μM probe
T1 construct: made in house
T1 sequence (P00352 1-501): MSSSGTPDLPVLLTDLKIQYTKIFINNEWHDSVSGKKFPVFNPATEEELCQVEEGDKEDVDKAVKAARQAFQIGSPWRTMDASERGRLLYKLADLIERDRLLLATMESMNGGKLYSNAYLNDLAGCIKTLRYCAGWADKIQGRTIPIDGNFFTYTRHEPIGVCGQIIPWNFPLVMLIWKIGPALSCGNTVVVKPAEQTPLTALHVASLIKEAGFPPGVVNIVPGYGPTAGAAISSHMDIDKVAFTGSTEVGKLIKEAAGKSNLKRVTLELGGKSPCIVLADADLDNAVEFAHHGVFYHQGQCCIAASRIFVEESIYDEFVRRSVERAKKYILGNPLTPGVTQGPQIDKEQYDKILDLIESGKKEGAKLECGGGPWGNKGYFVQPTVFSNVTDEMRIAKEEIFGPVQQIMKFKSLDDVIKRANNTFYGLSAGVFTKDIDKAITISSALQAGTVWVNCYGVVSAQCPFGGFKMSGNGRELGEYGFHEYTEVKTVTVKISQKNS
Method: Activation of AlDeSense was assessed using 20 units of each ALDH isoform. Activity was determined by activity measurements using each isoform's preferred substrate (1 unit=1 μmol substrate turned over/mol enzyme/min). Further details are in the supplementary information. All enzymatic reactions were performed in 50 mM triethanolamine buffer (pH 7.4, Thermo Fisher) with 2.5 mM NAD+(Alfa Aesar) and 5% v/v DMSO (Thermo Fisher) in a 1 mL quartz cuvette at room temperature.
AlDeSense activation was determined using fluorescence. Immediately before measurement, AlDeSense (1 μM) was added to a quartz cuvette. After vigorous mixing, the reaction was monitored at room temperature for 15 min. Fluorescence spectra were acquired according to following parameters: λex=498 nm, and emission range=505-580 nm. All scans were normalized to the signal from AlDeSense in 50 mM TEA and 2.5 mM NAD+(without enzyme). Endpoint measurements at 15 min were performed in triplicate and reported as the averages±standard deviation.

K562 cells = assay: Trypan blue cytotoxicity / viability assay; type: cell-based
Method: K562 cells were plated in a 96-well plate with 50,000 cells per well. Each well was filled to a final volume of 100 μL IMDM media with 0.25% DMSO. Wells were tested using red-AlDeSense or Ctrl-red-AlDeSense (1 μM and 5 μM each) or using a DMSO control. After 6-, 12-, and 24-hour incubation periods at 37° C. and 5% CO2, a 10 μL sample was removed from each condition and combined with 10 μL 0.4% w/v trypan blue in PBS. Samples were incubated for 3 minutes at room temperature before being loaded on a hemocytometer where live and dead cells were counted. Conditions were tested in triplicate for each time point. Samples were analyzed on an EVOS digital inverted microscope using transmitted white light for brightfield imaging and the Cy5 filter cube for trypan blue visualization.
K562 cells were plated in a 96-well plate at a density of 500,000 cells/mL in full IMDM media supplemented with either 1 μM or […] AlDeSense AM. Equivalent samples were supplemented with 1 μM or […] as a vehicle control. At 6, 12, and 24 hours, a 10 μL sample was removed from each of the samples and mixed 1:1 with a 0.4% wt/volume trypan blue solution in PBS. Samples were incubated for 1 minute at room temperature before being loaded onto a hemocytometer where live and dead cells were counted. Each sample was made in triplicate for each time point.

ALDH1A1 [6] = molecular target: T1, ALDH1A1; assay: ALDH isoform selectivity of red probes: ALDH1A1; type: biochemical; settings: for Enzyme Activity 1A1 / Enzymatic Turn On: Table 2; for Enzymatic Turn On: ALDH1A1, 2 μM dye
Method: (§1) Each ALDH isoform was added to a 50 mM triethanolamine solution (pH 7.4) containing 2.0 mM NAD^+ and 100 μM substrate at room temperature. Benzaldehyde was the substrate for ALDH3A1. Propanal was the substrate for all other isoforms. ALDH isoform activity was determined by monitoring the rate of NADH production through the increase in absorbance at 340 nm (ε=6220 M^−1cm^−1). For these assays, 1 unit is defined as the amount of enzyme that catalyzes the conversion of […] per minute. For every combination of dye and enzyme, 2 μM dye was preincubated with 2.0 mM NAD^+ in 50 mM triethanolamine solution (pH 7.4). The reaction was initiated by addition of 1 unit of ALDH. Dyes were excited at 590 nm, and fluorescence was measured continuously at 610 nm.

ALDH1A3 = molecular target: T2, ALDH1A3 (Homo sapiens, UniProt P47895); assay: ALDH isoform selectivity of red probes: ALDH1A3; type: biochemical; settings: for Enzyme Activity 1A3: Table 2
T2 construct: made in house
T2 sequence (P47895 1-512): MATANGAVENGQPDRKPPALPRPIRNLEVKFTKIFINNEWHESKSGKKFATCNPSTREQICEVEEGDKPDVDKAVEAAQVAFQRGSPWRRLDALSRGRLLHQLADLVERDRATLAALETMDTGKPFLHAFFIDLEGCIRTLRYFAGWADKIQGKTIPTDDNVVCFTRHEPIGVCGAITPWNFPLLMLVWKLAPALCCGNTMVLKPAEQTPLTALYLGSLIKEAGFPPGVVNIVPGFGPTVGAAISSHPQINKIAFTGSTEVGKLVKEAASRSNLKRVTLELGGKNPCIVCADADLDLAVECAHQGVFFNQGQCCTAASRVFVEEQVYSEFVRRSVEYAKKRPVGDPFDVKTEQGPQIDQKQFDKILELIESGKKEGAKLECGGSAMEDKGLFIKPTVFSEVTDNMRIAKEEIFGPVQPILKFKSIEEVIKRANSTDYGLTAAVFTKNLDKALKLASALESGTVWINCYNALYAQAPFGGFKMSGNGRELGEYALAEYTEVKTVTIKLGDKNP
Method: as §1

[7] = Stability of the fluorophore against water-mediated decomposition; type: physicochemical
ALDH1A1 kinetics [8] = substrate: Cc1cc(C=O)ccc1-c1c2cc(F)c(=O)cc-2oc2cc(O)c(F)cc12; assay: ALDH1A1 kinetics; type: biochemical, human; settings: other: ALDH1A1, identical conditions; pH 7.4
Method: (§2) Solutions were prepared of 2.0 mM NAD+ and 0.1-2.5 μM AlDeSense or red-AlDeSense in 50 mM triethanolamine solution (pH 7.4). For every concentration, 1 unit of enzyme (as defined and determined in ALDH Isoform Selectivity) was added. Fluorescence was monitored for 30 seconds to determine V0. AlDeSense was excited at 490 nm and monitored at 510 nm. Red-AlDeSense was excited at 590 nm and monitored at 610 nm. Each condition was performed in triplicate. Protein concentration was determined using the Pierce™ BCA Protein Assay Kit. Data was analyzed using Microsoft Excel.

ALDH1A1 kinetics [9] = substrate: Cc1cc(C=O)c(F)c(F)c1C1=C2C=CC(=O)C=C2[Si](C)(C)c2cc(O)ccc21; assay: ALDH1A1 kinetics; type: biochemical, human; settings: other: ALDH1A1, identical conditions; pH 7.4
Method: as §2

CC(=O)c1ccc(-c2c3cc(F)c(=O)cc-3oc3cc(O)c(F)cc23)c(C)c1 [Ctrl-AlDeSense]
signal in e-CSC versus non-CSC tumors [1]: did not show increased signal | ε [2]: 68000 M⁻¹ cm⁻¹ | λcm ([2]; Table 1): 518 nm | λabs ([2]; maximum absorbance): 496 nm | ΦF ([2]; prior to activation): 0.039 | fluorescence of e-CSC lungs versus non-CSC lungs [3]: not statistically different | logD (Log D7.4): 0.87 | pKa [4]: 4.47 | Turn-on (fold) (ALDH1A1 [5]): 0 fold | toxicity in cell viability assay (K562 cells; K562 cells, 6, 12 and 24 hours): non-toxic

CC(=O)c1cc(F)c(C2=C3C=CC(=O)C=C3[Si](C)(C)c3cc(O)ccc32)c(C)c1F [Ctrl-red-AlDeSense, 10-(4-A cetyl-3,6-difluoro-2-methylphenyl)-7-hydroxy-5,5-dimethyldibenzo[b, e]silin-3(5H)-one]
toxicity in cell viability assay (K562 cells): nontoxic

Cc1cc(C=O)ccc1C1=C2C=CC(=O)C=C2[Si](C)(C)c2cc(O)ccc21 [Probe 1, 4-(7-Hydroxy-5,5-dimethyl-3-oxo-3,5-dihydrodibenzo[b, e]silin-10-yl)-3-methylbenzaldehyde]
turn-on response when treated with ALDH1A1 (ALDH1A1 [6]): 1.7 fold | Enzyme Activity 1A1 (ALDH1A1 [6]): High | Enzymatic Turn On (ALDH1A1 [6]): 1.7 | Quantum Yield [2]: 0.32 | selectivity ALDH1A1 versus ALDH1A3 (ALDH1A3): no longer selective for ALDH1A1 | Enzyme Activity 1A3 (ALDH1A3): Medium

C[Si]1(C)C2=CC(=O)C=CC2=C(c2ccc(C=O)cc2F)c2ccc(O)cc21 [Probe 2, 3-Fluoro-4-(7-hydroxy-5,5-dimethyl-3-oxo-3,5-dihydrodibenzo[b, e]silin-10-yl)benzaldehyde]
stability against water-mediated decomposition of the fluorophore [7]: rapid decomposition

C[Si]1(C)C2=CC(=O)C=CC2=C(c2ccc(C=O)cc2[N+](=O)[O-])c2ccc(O)cc21 [Probe 4, 4-(7-Hydroxy-5,5-dimethyl-3-oxo-3,5-dihydrodibenzo[b, e]silin-10-yl)-3-nitrobenzaldehyde]
Quantum Yield [2]: 0.00

Cc1cc(C=O)c(F)cc1C1=C2C=CC(=O)C=C2[Si](C)(C)c2cc(O)ccc21 [Probe 5, 2-Fluoro-4-(7-hydroxy-5,5-dimethyl-3-oxo-3,5-dihydrodibenzo[b, e]silin-10-yl)-5-methylbenzaldehyde]
turn-on response when treated with ALDH1A1 (ALDH1A1 [6]): 2.6 fold | Enzyme Activity 1A1 (ALDH1A1 [6]): High | Enzymatic Turn On (ALDH1A1 [6]): 2.6 | Quantum Yield [2]: 0.21 | Enzyme Activity 1A3 (ALDH1A3): Low

C[Si]1(C)C2=CC(=O)C=CC2=C(c2c(F)cc(C=O)cc2F)c2ccc(O)cc21 [Probe 6, 3,5-Difluoro-4-(7-hydroxy-5,5-dimethyl-3-oxo-3,5-dihydrodibenzo[b, e]silin-10-yl)benzaldehyde]
stability against water-mediated decomposition of the fluorophore [7]: prevent water-mediated decomposition | turn-on response when treated with ALDH1A1 (ALDH1A1 [6]): 3.9 fold | Enzyme Activity 1A1 (ALDH1A1 [6]): High | Enzymatic Turn On (ALDH1A1 [6]): 3.9 | Quantum Yield [2]: 0.13 | selectivity ALDH1A1 versus ALDH1A3 (ALDH1A3): exhibited cross-reactivity with ALDH1A3 | Enzyme Activity 1A3 (ALDH1A3): High

Cc1c(F)c(C=O)cc(F)c1C1=C2C=CC(=O)C=C2[Si](C)(C)c2cc(O)ccc21 [Probe 8, 2,5-Difluoro-4-(7-hydroxy-5,5-dimethyl-3-oxo-3,5-dihydrodibenzo[b, e]silin-0-yl)-3-methylbenzaldehyde]
Enzyme Activity 1A1 (ALDH1A1 [6]): High | Enzymatic Turn On (ALDH1A1 [6]): 3.1 | Quantum Yield [2]: 0.20 | selectivity ALDH1A1 versus ALDH1A3 (ALDH1A3): selectivity was eroded | Enzyme Activity 1A3 (ALDH1A3): Medium

Cc1cc(C(=O)O)ccc1-c1c2cc(F)c(=O)cc-2oc2cc(O)c(F)cc12 [oxidized AlDeSense]
toxicity in cell viability assay (K562 cells; K562 cells, 6, 12 and 24 hours): non-toxic

B1: ALDH1A1 (Homo sapiens) (protein)
chain: T1 sequence (P00352 1-501)
notes: made in house
kcat/Km (ALDH1A1 kinetics [8]): 57700 M⁻¹ s⁻¹ | kcat/Km (ALDH1A1 kinetics [9]): 132000 M⁻¹ s⁻¹

Reference: patent US11407725B2 (The Board of Trustees of the University of Illinois, priority 2018, dated 2022)
